The text below walks through data of PMC4067742, “Direct Observations of Amyloid β Self-Assembly in Live Cells Provide Insights into Differences in the Kinetics of Aβ(1–40) and Aβ(1–42) Aggregation” (Chemistry & Biology, 2014).

The test concerns SH-SY5Y cells. Kind of test: dSTORM superresolution imaging of intracellular aggregates. The format is cell-based, human. Particulars: 500 nM monomers, fixed cells; for average size of intracellular aggregates (diameter / longest dimension) after 24 hr: pixel counting in dSTORM images, only aggregates above resolution limit (55–70 nm), n = 18–27; for change in size of intracellular aggregates between 24 and 48 hr: pixel counting in dSTORM images (Figure 5B). As to the method: To further investigate the nature of the intracellular Aβ(1–40) and Aβ(1–42) aggregates, we used superresolution fluorescence microscopy to analyze their physical appearance. […] Thus, we treated SH-SY5Y cells with 500 nM of ^HF647Aβ(1–40) or 500 nM of ^HF647Aβ(1–42) monomers for periods of 24 and 48 h. Thereafter, the cells were fixed, immersed in switching buffer, and imaged at single-molecule resolution using a homebuilt total internal reflection fluorescence (TIRF) microscope operated under highly inclined illumination ([Tokunaga et al., 2008]) to obtain images from an image plane within the cells. Superresolved images (Figure 5A) of the intracellular ^HF647Aβ(1–40) and ^HF647Aβ(1–42) aggregates were then reconstructed as described in the Experimental Procedures. dSTORM results in a dramatic increase in resolution compared with conventional confocal imaging (Figure S4). In this case, the lateral resolution of our images was calculated to be 55–70 nm using a blind assessment density estimation approach ([Rees et al., 2012]). Features larger than the lateral resolution limit can, therefore, be interpreted with confidence as having approximately the correct size and shape. […] The ^HF647Aβ(1–42) aggregates, by contrast, appear to include both spherical and elongated species, with an average size along their longest dimension of approximately 225 nm (Figure 5B). The observation that, after 24 hr, ^HF647Aβ(1–42) forms intracellular species that are larger than those formed by ^HF647Aβ(1–40) is consistent with the differences in their mean fluorescence lifetimes (Figures 4C, 4D, and 5C). […] Comparison of the FLIM and dSTORM data recorded after 24 and 48 hr indicates a qualitative relationship between aggregate size and HF488 fluorescence lifetime (Figures 5B and 5C), supporting the conclusion that the fluorescence lifetime reflects the nature and abundance of the Aβ amyloid aggregates formed in vivo.
Human neuroblastoma cells (SH-SY5Y) were grown in 1:1 minimal essential medium (MEM) and nutrient mixture F-12 Ham (Sigma-Aldrich) with sodium bicarbonate, including 15% heat-inactivated fetal bovine serum, 1% MEM non-essential amino acids, 2 mM […], 1% penicillin-streptomycin (10,000 U/ml K1), and 0.1% fungizone (amphotericin B, […] K1) (Life Technologies). Cells were plated 1 day prior to experiments in glass-bottomed culture dishes (MatTek) at a density of 50,000 cells/14-mm dish. […]
All dSTORM experiments were carried out using HF647-labeled peptides. Fluorescence images for dSTORM were taken on a Nikon Te-300 Eclipse inverted wide field microscope, with a 100×, 1.49 numerical aperture TIRF objective lens, an Andor iXon 887DV electron-multiplying charge-coupled device camera, and a Semrock fluorescence filter set (LF405/488/561/635-A-00). […]

Regarding “^HF647Aβ(1–40): Synthetic amyloid β (1–40) peptide labeled at the N terminus with Hilyte Fluor 647, purchased from Anaspec”, the “average size of intracellular aggregates (diameter / longest dimension) after 24 hr” value was “approximately 160 nm”; the “change in size of intracellular aggregates between 24 and 48 hr” value is “appear to have increased in size”.

Take “^HF647Aβ(1–42): Synthetic amyloid β (1–42) peptide labeled at the N terminus with Hilyte Fluor 647, purchased from Anaspec”: the “average size of intracellular aggregates (diameter / longest dimension) after 24 hr” value is on record as “approximately 225 nm”; the “change in size of intracellular aggregates between 24 and 48 hr” value is given as “no significant change in the size”.
